Assay results taken from ChEMBL document CHEMBL4507310, “Data for DCP probe A-1211212” (2021).

Legend:
[1] = target: Calcium/calmodulin-dependent protein kinase kinase 1 (Homo sapiens) (UniProt Q8N5S9); conditions: Compound concentration 1000.0 nM
[2] = target: Dual serine/threonine and tyrosine protein kinase (Homo sapiens) (UniProt Q6XUX3); conditions: Compound concentration 1000.0 nM
[3] = target: Serine/threonine-protein kinase Chk2 (Homo sapiens) (UniProt O96017); conditions: Compound concentration 1000.0 nM
[4] = tested on: Epidermal growth factor receptor (Homo sapiens), P00533 [L858R,T790M]; conditions: Compound concentration 1000.0 nM
[5] = target: Ribosomal protein S6 kinase alpha-1 (Homo sapiens) (UniProt Q15418); conditions: Compound concentration 1000.0 nM
[6] = target: Serine/threonine-protein kinase tousled-like 2 (Homo sapiens) (UniProt Q86UE8); conditions: Compound concentration 1000.0 nM
[7] = target: Dual specificity mitogen-activated protein kinase kinase 3 (Homo sapiens) (UniProt P46734); conditions: Compound concentration 1000.0 nM
[8] = target: Ephrin type-A receptor 1 (Homo sapiens) (UniProt P21709); conditions: Compound concentration 1000.0 nM
[9] = target: cGMP-inhibited 3',5'-cyclic phosphodiesterase 3A (Homo sapiens) (UniProt Q14432); assay: PDE3A (h) Eurofins-Cerep enzyme and uptake assay; conditions: Compound concentration 10.0 uM
[10] = target: Serine/threonine-protein kinase Nek10 (Homo sapiens) (UniProt Q6ZWH5); conditions: Compound concentration 1000.0 nM
[11] = target: Dual specificity testis-specific protein kinase 1 (Homo sapiens) (UniProt Q15569); conditions: Compound concentration 1000.0 nM
[12] = target: Prostaglandin G/H synthase 2 (Homo sapiens) (UniProt P35354); assay: COX2(h) Eurofins-Cerep enzyme and uptake assay; conditions: Compound concentration 10.0 uM
[13] = target: Phosphatidylinositol 4-phosphate 3-kinase C2 domain-containing subunit beta (Homo sapiens) (UniProt O00750); conditions: Compound concentration 1000.0 nM
[14] = target: Alpha-2C adrenergic receptor (Homo sapiens) (UniProt P18825); conditions: Compound concentration 10.0 uM
[15] = target: Cyclin-dependent kinase 19 (Homo sapiens) (UniProt Q9BWU1); conditions: Compound concentration 1000.0 nM
[16] = target: Mitogen-activated protein kinase kinase kinase 19 (Homo sapiens) (UniProt Q56UN5); conditions: Compound concentration 1000.0 nM
[17] = target: Serine/threonine-protein kinase D3 (Homo sapiens) (UniProt O94806); conditions: Compound concentration 1000.0 nM
[18] = target: Bone morphogenetic protein receptor type-1A (Homo sapiens) (UniProt P36894); conditions: Compound concentration 1000.0 nM
[19] = target: Mitogen-activated protein kinase 15 (Homo sapiens) (UniProt Q8TD08); conditions: Compound concentration 1000.0 nM
[20] = target: Proto-oncogene tyrosine-protein kinase Src (Homo sapiens) (UniProt P12931); conditions: Compound concentration 1000.0 nM
[21] = tested on: Leucine-rich repeat serine/threonine-protein kinase 2 (Homo sapiens), Q5S007 [G2019S]; conditions: Compound concentration 1000.0 nM
[22] = tested on: Epidermal growth factor receptor (Homo sapiens), P00533 [L858R]; conditions: Compound concentration 1000.0 nM
[23] = target: Cannabinoid receptor 1 (Homo sapiens) (UniProt P21554); assay: CB1 (h) Eurofins-Cerep binding assay; parameters: ligand concentration 0.5 nM; conditions: filed as agonist, Compound concentration 10.0 uM
[24] = target: Phosphatidylinositol 3-kinase C2 domain-containing subunit gamma (Homo sapiens) (UniProt O75747); conditions: Compound concentration 1000.0 nM
[25] = target: Serine/threonine-protein kinase 3 (Homo sapiens) (UniProt Q13188); conditions: Compound concentration 1000.0 nM
[26] = target: Beta-1 adrenergic receptor (Homo sapiens) (UniProt P08588); assay: Beta1 (h) Eurofins-Cerep binding assay; parameters: ligand concentration 0.3 nM; conditions: filed as agonist, Compound concentration 10.0 uM
[27] = target: NUAK family SNF1-like kinase 1 (Homo sapiens) (UniProt O60285); conditions: Compound concentration 1000.0 nM
[28] = target: 5-hydroxytryptamine receptor 1B (Homo sapiens) (UniProt P28222); conditions: Compound concentration 10.0 uM
[29] = target: Serine/threonine-protein kinase 32C (Homo sapiens) (UniProt Q86UX6); conditions: Compound concentration 1000.0 nM
[30] = tested on: Epidermal growth factor receptor (Homo sapiens), P00533 [L861Q]; conditions: Compound concentration 1000.0 nM
[31] = target: Serine/threonine-protein kinase N2 (Homo sapiens) (UniProt Q16513); conditions: Compound concentration 1000.0 nM
[32] = target: Cyclin-dependent kinase 11B (Homo sapiens) (UniProt P21127); conditions: Compound concentration 1000.0 nM
[33] = target: Aurora kinase A (Homo sapiens) (UniProt O14965); conditions: Compound concentration 1000.0 nM
[34] = target: Serine/threonine-protein kinase WNK1 (Homo sapiens) (UniProt Q9H4A3); conditions: Compound concentration 1000.0 nM
[35] = target: 1-phosphatidylinositol 3-phosphate 5-kinase (Homo sapiens) (UniProt Q9Y2I7); conditions: Compound concentration 1000.0 nM
[36] = target: Non-receptor tyrosine-protein kinase TNK1 (Homo sapiens) (UniProt Q13470); conditions: Compound concentration 1000.0 nM
[37] = target: Sigma intracellular receptor 2 (Homo sapiens, UniProt Q5BJF2); conditions: Compound concentration 10.0 uM
[38] = tested on: Mast/stem cell growth factor receptor Kit (Homo sapiens), P10721 [D816H]; conditions: Compound concentration 1000.0 nM
[39] = target: Non-receptor tyrosine-protein kinase TYK2 (Homo sapiens) (UniProt P29597); conditions: Compound concentration 1000.0 nM
[40] = target: L-type Ca2+ channel (diltiazem site, benzothiazepines) (Rattus norvegicus, UniProt P22002+P27732+Q02485); assay: Ca2+ channel (L, diltiazem site) (benzothiazepines) Eurofins-Cerep binding assay; type: protein assay; parameters: incubation time 120 min, incubation temperature RT, ligand concentration 15 nM; conditions: rat cerebral cortex, probe [3H]diltiazem (15 nM), compound concentration 10 uM, read-out: % Inhibition of Control Specific Binding (Mean n=2)
[41] = target: Mitogen-activated protein kinase kinase kinase kinase 1 (Homo sapiens) (UniProt Q92918); conditions: Compound concentration 1000.0 nM
[42] = target: Mitogen-activated protein kinase kinase kinase kinase 2 (Homo sapiens) (UniProt Q12851); conditions: Compound concentration 1000.0 nM
[43] = target: Ephrin type-A receptor 4 (Homo sapiens) (UniProt P54764); conditions: Compound concentration 1000.0 nM
[44] = target: Histamine H3 receptor (Homo sapiens) (UniProt Q9Y5N1); conditions: Compound concentration 10.0 uM

Sequence of Serine/threonine-protein kinase tousled-like 2 (Homo sapiens) (Q86UE8 whole entry, looked up): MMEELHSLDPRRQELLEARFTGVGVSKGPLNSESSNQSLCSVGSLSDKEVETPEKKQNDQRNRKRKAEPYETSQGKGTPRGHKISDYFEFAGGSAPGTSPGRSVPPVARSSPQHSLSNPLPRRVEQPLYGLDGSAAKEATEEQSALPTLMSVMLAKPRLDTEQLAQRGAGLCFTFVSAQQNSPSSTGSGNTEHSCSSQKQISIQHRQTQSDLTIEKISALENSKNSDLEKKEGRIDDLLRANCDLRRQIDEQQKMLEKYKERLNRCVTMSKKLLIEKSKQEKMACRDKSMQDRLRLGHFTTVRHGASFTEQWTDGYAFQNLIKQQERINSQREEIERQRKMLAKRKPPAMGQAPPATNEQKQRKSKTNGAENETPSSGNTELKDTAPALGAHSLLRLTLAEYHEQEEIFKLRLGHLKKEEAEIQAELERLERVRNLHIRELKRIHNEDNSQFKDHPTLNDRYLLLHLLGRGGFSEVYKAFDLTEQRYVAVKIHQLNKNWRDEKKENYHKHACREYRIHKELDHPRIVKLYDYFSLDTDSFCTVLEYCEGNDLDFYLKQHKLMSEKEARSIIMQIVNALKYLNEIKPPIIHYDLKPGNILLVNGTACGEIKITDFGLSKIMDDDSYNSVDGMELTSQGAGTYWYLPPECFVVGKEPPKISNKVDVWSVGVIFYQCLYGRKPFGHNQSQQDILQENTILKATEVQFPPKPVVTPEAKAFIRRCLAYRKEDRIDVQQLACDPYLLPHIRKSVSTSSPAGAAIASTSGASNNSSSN
Sequence of Mitogen-activated protein kinase kinase kinase kinase 1 (Homo sapiens) (Q92918 whole entry, looked up): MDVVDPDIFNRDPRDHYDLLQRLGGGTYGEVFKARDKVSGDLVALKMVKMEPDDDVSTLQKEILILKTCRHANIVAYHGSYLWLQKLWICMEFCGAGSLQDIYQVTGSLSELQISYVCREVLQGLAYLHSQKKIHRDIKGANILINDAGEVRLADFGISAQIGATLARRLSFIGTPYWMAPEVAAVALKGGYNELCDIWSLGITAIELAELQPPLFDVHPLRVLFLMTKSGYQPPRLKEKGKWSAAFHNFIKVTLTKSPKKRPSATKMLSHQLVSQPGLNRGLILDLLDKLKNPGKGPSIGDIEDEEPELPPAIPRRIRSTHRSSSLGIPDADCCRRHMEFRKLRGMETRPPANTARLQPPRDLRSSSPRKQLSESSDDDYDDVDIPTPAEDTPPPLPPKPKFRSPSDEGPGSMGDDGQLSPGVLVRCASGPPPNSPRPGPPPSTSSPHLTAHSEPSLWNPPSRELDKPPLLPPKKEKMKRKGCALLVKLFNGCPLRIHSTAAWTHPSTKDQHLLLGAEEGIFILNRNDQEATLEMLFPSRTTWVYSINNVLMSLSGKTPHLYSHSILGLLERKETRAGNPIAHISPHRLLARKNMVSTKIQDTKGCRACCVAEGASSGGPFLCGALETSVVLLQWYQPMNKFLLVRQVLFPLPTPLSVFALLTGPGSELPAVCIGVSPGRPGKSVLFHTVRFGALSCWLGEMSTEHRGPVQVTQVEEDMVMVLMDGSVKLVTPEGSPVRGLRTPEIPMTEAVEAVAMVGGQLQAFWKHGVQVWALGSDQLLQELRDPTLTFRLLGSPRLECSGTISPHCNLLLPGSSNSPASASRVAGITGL
Sequence of Alpha-2C adrenergic receptor (Homo sapiens) (P18825 whole entry): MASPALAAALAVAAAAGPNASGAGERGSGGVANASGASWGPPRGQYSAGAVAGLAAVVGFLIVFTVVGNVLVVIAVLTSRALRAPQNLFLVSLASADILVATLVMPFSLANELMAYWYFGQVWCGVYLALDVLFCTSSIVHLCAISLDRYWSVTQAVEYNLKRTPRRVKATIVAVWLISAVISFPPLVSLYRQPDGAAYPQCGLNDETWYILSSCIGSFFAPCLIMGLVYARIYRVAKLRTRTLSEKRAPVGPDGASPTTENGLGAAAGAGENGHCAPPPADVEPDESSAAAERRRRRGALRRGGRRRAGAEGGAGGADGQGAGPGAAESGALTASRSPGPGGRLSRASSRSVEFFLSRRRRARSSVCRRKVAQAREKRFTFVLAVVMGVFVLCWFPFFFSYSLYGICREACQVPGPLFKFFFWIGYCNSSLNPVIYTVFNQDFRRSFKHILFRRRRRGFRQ
Sequence of Cyclin-dependent kinase 19 (Homo sapiens) (Q9BWU1 whole entry): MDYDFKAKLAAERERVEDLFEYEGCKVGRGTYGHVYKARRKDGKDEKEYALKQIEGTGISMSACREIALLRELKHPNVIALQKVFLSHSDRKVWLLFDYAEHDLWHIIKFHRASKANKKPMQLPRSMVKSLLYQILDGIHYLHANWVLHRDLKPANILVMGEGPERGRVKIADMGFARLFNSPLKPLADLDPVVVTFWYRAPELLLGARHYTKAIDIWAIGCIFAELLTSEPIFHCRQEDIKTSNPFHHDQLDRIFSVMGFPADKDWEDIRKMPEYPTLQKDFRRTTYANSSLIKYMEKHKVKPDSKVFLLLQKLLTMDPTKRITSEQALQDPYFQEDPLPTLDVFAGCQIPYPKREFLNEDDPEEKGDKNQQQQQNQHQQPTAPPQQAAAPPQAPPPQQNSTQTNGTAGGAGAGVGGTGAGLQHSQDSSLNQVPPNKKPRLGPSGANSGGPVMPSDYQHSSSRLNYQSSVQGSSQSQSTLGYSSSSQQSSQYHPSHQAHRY
Sequence of Bone morphogenetic protein receptor type-1A (Homo sapiens) (P36894 whole entry): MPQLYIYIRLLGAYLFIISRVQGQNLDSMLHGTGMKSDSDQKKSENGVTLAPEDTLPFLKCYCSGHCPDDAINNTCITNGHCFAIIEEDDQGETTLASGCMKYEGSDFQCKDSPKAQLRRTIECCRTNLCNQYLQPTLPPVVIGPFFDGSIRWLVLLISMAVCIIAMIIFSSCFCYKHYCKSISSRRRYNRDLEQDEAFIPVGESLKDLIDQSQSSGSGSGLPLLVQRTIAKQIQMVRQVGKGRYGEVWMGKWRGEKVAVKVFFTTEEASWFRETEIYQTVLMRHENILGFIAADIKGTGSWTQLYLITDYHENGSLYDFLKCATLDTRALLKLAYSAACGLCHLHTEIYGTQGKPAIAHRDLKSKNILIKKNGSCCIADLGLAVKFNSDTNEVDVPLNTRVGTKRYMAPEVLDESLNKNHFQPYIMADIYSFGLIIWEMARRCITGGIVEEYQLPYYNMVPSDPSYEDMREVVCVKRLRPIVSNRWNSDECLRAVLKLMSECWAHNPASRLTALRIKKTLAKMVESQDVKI
Sequence of Serine/threonine-protein kinase 3 (Homo sapiens) (Q13188 whole entry): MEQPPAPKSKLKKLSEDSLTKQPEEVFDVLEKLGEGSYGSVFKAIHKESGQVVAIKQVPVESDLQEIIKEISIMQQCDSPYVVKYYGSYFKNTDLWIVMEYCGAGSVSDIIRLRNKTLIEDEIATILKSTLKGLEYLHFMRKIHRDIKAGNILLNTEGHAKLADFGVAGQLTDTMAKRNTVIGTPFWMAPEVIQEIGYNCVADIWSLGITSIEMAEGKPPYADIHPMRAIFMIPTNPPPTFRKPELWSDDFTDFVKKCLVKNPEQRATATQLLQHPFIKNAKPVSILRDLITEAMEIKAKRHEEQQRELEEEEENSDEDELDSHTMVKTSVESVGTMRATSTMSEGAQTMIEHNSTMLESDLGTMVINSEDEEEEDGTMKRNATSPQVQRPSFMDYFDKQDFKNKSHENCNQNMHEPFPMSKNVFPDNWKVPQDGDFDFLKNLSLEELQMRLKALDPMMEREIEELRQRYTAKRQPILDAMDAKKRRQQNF
Sequence of Non-receptor tyrosine-protein kinase TYK2 (Homo sapiens) (P29597 whole entry): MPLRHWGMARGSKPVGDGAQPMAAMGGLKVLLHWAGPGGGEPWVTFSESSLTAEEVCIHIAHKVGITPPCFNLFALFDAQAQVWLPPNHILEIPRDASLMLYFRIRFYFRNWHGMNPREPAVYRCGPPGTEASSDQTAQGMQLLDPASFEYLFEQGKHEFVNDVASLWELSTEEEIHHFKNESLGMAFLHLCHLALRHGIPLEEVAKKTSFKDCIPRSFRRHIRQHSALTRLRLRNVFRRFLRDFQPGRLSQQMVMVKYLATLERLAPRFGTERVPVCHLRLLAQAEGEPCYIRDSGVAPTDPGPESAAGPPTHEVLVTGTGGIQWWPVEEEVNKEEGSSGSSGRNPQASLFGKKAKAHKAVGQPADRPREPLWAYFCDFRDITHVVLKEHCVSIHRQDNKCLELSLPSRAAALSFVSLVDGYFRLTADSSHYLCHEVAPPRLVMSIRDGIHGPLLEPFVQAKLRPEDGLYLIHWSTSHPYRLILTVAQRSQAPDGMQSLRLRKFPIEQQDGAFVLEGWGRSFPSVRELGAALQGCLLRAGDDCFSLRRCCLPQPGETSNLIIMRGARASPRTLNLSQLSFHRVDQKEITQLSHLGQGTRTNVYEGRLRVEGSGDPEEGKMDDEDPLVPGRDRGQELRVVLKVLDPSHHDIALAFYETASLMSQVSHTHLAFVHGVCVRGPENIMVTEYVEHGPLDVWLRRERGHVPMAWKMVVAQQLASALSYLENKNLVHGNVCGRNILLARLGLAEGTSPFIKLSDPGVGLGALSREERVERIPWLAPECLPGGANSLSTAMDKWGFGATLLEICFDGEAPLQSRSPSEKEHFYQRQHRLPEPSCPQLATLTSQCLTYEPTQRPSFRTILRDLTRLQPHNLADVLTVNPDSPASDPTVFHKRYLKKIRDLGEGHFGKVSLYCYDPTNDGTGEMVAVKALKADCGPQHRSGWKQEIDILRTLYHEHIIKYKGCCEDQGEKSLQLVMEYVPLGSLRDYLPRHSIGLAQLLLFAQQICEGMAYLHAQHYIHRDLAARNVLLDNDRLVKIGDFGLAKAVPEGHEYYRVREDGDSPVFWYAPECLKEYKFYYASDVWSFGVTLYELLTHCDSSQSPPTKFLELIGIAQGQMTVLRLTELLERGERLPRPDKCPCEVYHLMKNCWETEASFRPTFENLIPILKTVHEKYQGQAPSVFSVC
Sequence of Sigma intracellular receptor 2 (Q5BJF2 whole entry): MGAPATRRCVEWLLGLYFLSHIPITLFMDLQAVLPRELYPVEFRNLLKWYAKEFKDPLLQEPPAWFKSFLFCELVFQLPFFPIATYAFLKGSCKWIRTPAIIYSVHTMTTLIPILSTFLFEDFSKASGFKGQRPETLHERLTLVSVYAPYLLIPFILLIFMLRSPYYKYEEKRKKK

O=C(NS(=O)(=O)c1ccc(NCC2CCOCC2)c([N+](=O)[O-])c1)c1ccc(N2CCN(Cc3ccc(C(F)(F)F)cc3-c3ccc(Cl)cc3)CC2)cc1Oc1cnc2[nH]ccc2c1 [A-1210227]
residual activity [1]: 92% | residual activity [2]: 94% | residual activity [3]: 95% | residual activity [4]: 75% | residual activity [5]: 100% | residual activity [6]: 100% | residual activity [7]: 80% | residual activity [8]: 98% | % Inhibition of Control Values (Mean n=2) [9]: 6% | residual activity [10]: 100% | residual activity [11]: 100% | % Inhibition of Control Values (Mean n=2) [12]: 78.1% | residual activity [13]: 83% | inhibition [14]: 12.7% | residual activity [15]: 90% | residual activity [16]: 71% | residual activity [17]: 100% | residual activity [18]: 81% | residual activity [19]: 94% | residual activity [20]: 76% | residual activity [21]: 88% | residual activity [22]: 90% | % Inhibition of Control Specific Binding (Mean n=2) [23]: -13.7% | residual activity [24]: 80% | residual activity [25]: 100% | % Inhibition of Control Specific Binding (Mean n=2) [26]: -8.2% | residual activity [27]: 98% | inhibition [28]: -6.15% | residual activity [29]: 55% | residual activity [30]: 93% | residual activity [31]: 93% | residual activity [32]: 97% | residual activity [33]: 96% | residual activity [34]: 100% | residual activity [35]: 100% | residual activity [36]: 96% | inhibition [37]: 54.3% | residual activity [38]: 76% | residual activity [39]: 84% | inhibition at 120 min, 10 µM [40]: -124% | residual activity [41]: 98% | residual activity [42]: 76% | residual activity [43]: 100% | inhibition [44]: -1.15%

CO[C@H]1CC[C@H](CNc2ccc(S(=O)(=O)NC(=O)c3ccc(N4CCN(CC5=C(c6ccc(Cl)cc6)CC(C)(C)CC5)CC4)cc3Oc3cnc4[nH]ccc4c3)cc2[N+](=O)[O-])CC1 [A-1211212]
residual activity [1]: 83% | residual activity [2]: 100% | residual activity [3]: 89% | residual activity [4]: 98% | residual activity [5]: 73% | residual activity [6]: 87% | residual activity [7]: 92% | residual activity [8]: 100% | % Inhibition of Control Values (Mean n=2) [9]: 4.9% | residual activity [10]: 100% | residual activity [11]: 100% | % Inhibition of Control Values (Mean n=2) [12]: 14.2% | residual activity [13]: 92% | inhibition [14]: 15.6% | residual activity [15]: 73% | residual activity [16]: 64% | residual activity [17]: 100% | residual activity [18]: 57% | residual activity [19]: 85% | residual activity [20]: 78% | residual activity [21]: 100% | residual activity [22]: 60% | % Inhibition of Control Specific Binding (Mean n=2) [23]: -6.4% | residual activity [24]: 72% | residual activity [25]: 85% | % Inhibition of Control Specific Binding (Mean n=2) [26]: -10.9% | residual activity [27]: 100% | inhibition [28]: 6.23% | residual activity [29]: 54% | residual activity [30]: 70% | residual activity [31]: 97% | residual activity [32]: 98% | residual activity [33]: 100% | residual activity [34]: 100% | residual activity [35]: 89% | residual activity [36]: 81% | inhibition [37]: 60.7% | residual activity [38]: 76% | residual activity [39]: 98% | inhibition at 120 min, 10 µM [40]: -6.2% | residual activity [41]: 69% | residual activity [42]: 83% | residual activity [43]: 88% | inhibition [44]: 4.97%
